Laboratory results from publication PMC10892818, “An Antiherpesviral Host-Directed Strategy Based on CDK7 Covalently Binding Drugs: Target-Selective, Picomolar-Dose, Cross-Virus Reactivity” (Pharmaceutics, 2024).
Where two headings read alike, the source gives them in different places.

What was measured:
[1] = Neutral Red uptake assay (NRA), uninfected HFFs; format: cell-based; settings: human, read-out: CC50 (VZV-GFP system)
Procedure: The cytotoxic level of the compounds was determined by the use of an established quantitation of cell viability (i.e., Neutral Red uptake assay) performed after 3–7 d of compound incubation on uninfected cells (according to the respective duration of the antiviral reporter-based replication assay performed in parallel) as described earlier in [44].

HCMV UL97-L397R = test system: HCMV UL97-L397R; set-up: method as in PMID 31940472; key: R-high, high-level drug resistance; R-int, intermediate-level drug resistance; R-low, low-level drug resistance; S, drug sensitivity; settings: cited from earlier work
HCMV UL97-H411Y = test system: HCMV UL97-H411Y; set-up: method as in PMID 31940472; key: R-high, high-level drug resistance; R-int, intermediate-level drug resistance; R-low, low-level drug resistance; S, drug sensitivity; settings: cited from earlier work
HCMV UL97-M460I = test system: HCMV UL97-M460I; set-up: method as in PMID 31940472; key: R-high, high-level drug resistance; R-int, intermediate-level drug resistance; R-low, low-level drug resistance; S, drug sensitivity; settings: cited from earlier work
HCMV UL97-C603W = test system: HCMV UL97-C603W; set-up: method as in PMID 31940472; key: R-high, high-level drug resistance; R-int, intermediate-level drug resistance; R-low, low-level drug resistance; S, drug sensitivity; settings: cited from earlier work
HCMV UL97-C480F = test system: HCMV UL97-C480F; set-up: method as in PMID 31940472; key: R-high, high-level drug resistance; R-int, intermediate-level drug resistance; R-low, low-level drug resistance; S, drug sensitivity; settings: cited from earlier work
HCMV UL97-F342S = test system: HCMV UL97-F342S; set-up: method as in PMID 31940472; key: R-high, high-level drug resistance; R-int, intermediate-level drug resistance; R-low, low-level drug resistance; S, drug sensitivity; settings: (for F342Y); cited from earlier work
HCMV UL97-H520Q = test system: HCMV UL97-H520Q; set-up: method as in PMID 31940472; key: R-high, high-level drug resistance; R-int, intermediate-level drug resistance; R-low, low-level drug resistance; S, drug sensitivity; settings: cited from earlier work
HCMV UL97-C592G = test system: HCMV UL97-C592G; set-up: method as in PMID 31940472; key: R-high, high-level drug resistance; R-int, intermediate-level drug resistance; R-low, low-level drug resistance; S, drug sensitivity; settings: cited from earlier work
VZV Oka-GFP = experiment: microbe, parasite or virus in culture; format: cell-based, varicella zoster virus; settings: for EC50: Human alphaherpesvirus 3, 96 h
Text: The virus recombinants VZV Oka-GFP and rKSHV.219-GFP/RFP were used for the infection of HFFs (virus stock VZV Oka-GFP applied as a cell-bound inoculum as described before) or were continuously passaged in iSLK.219 carrier cells, respectively (Figure 1). The conditions of the GFP/RFP-based assays were adapted to both the 96 well (Figure 1A,B) and 12 well formats, and details including the assessment of antiviral reference drugs are given (Figure 1C,D).
The virus recombinants VZV Oka-GFP and rKSHV.219-GFP/RFP were used for the infection of HFFs (VZV) or were continuously passaged in iSLK.219 carrier cells (KSHV), respectively, and cell viability was determined by NRA performed with uninfected HFFs or uninduced iSLK.219 cells, respectively. (A,B) Schematic depiction of the assay systems performed in a 96 well plate format. […] For the VZV-GFP system, virus stock VZV Oka-GFP was applied as a cell-bound infectious inoculum. After a 90 min period of inoculum adsorption to the cell surfaces, antiviral compounds were added to the culture media at serial dilutions (DMSO served as a solvent control for drug treatment of infected cells, while mock-infected cells served as a negative control). For the KSHV-GFP/RFP system, iSLK.219 cell lytic replication of KSHV (RFP reporter signal) was induced by the addition of 0.05 or 0.5 µg/mL doxycycline (dox) to the culture media. Cultivated dox-induced iSLK.219 cells were treated with antiviral compounds added at serial dilutions (DMSO served as a positive infection solvent control, while dox-untreated mock cells served as a negative control). HFFs or iSLK.219 cells were harvested at 4 d p.i. or 1 d after treatment, respectively, fixed by a 10 min incubation with 10% formalin, washed with PBS, and used for quantitation of the GFP or RFP reporter signal by PicoMD counting (ImageXpress® Pico device, Molecular Devices LLC, San Jose, CA, USA), with data evaluation using CellReporterXpress® software (version 2.9.3.1183, Molecular Devices LLC) as described earlier in [63]. (C) The antiviral activity of the reference drugs was determined with the VZV-GFP system in the 96 well format. EC50 values refer to measurements in quadruplicate, and the mean values ± SD of two experimental replicates are given. (D) The antiviral activity of the reference drugs was determined with the KSHV-GFP/RFP system in the 96 well format. EC50 values refer to measurements in triplicate, and the mean values ± SD are given for each of the two depicted experimental replicates.

HCMV UL97-T409M = test system: HCMV UL97-T409M; set-up: method as in PMID 31940472; key: R-high, high-level drug resistance; R-int, intermediate-level drug resistance; R-low, low-level drug resistance; S, drug sensitivity; settings: cited from earlier work
[2] = read-out: VZV EC50 (first experimental replicate)
[3] = read-out: VZV EC50 (second experimental replicate)

Row | SMILES | CC50 [1] [nM] | Reported phenotype UL97-L397R (HCMV UL97-L397R) | Reported phenotype UL97-H411Y (HCMV UL97-H411Y) | Reported phenotype UL97-M460I (HCMV UL97-M460I) | Reported phenotype UL97-C603W (HCMV UL97-C603W) | Reported phenotype UL97-C480F (HCMV UL97-C480F) | Reported phenotype UL97-F342S (HCMV UL97-F342S) | Reported phenotype UL97-H520Q (HCMV UL97-H520Q) | Reported phenotype UL97-C592G (HCMV UL97-C592G) | EC50 (VZV Oka-GFP; [2]) [nM] | EC50 (VZV Oka-GFP; [3]) [nM] | Reported phenotype UL97-T409M (HCMV UL97-T409M) | SI (VZV-GFP system) (VZV Oka-GFP; 96 well format)
1 | Nc1nc(O)c2ncn(COC(CO)CO)c2n1 [GCV, ganciclovir] | > 100000 | S | R-low | R-high | R-high | R-int | R-high | R-high | R-int | 1000 ± 800 | 2900 ± 2700 | R-low | 
2 | Nc1ccn(C[C@@H](CO)OCP(=O)(O)O)c(=O)n1 [CDV, cidofovir] | > 100000 | S | S | S | S | S | S | S | S | 300 ± 100 | 300 ± 200 | S | > 323
